Data published in the NIST ThermoML archive (doi:10.1016/j.tca.2018.05.009).
Where “and” joins values, the source holds several entries; their conditions need not be identical. Identical values can stand only once.

Conditions: Liquid, Transpiration method

COC(=O)C(C)=O [methyl 2-oxopropanoate]
Conditions	vapor or sublimation pressure
279.4 K	0.177 kPa and 0.1749 kPa
280.9 K	0.1942 kPa
282.4 K	0.2279 kPa
283.8 K	0.2536 kPa
286.2 K	0.2982 kPa and 0.293 kPa
287 K	0.3042 kPa
289.2 K	0.3569 kPa
291 K	0.426 kPa
294.9 K	0.527 kPa
298.9 K	0.706 kPa
302.9 K	0.919 kPa
307.8 K	1.227 kPa

CC(=O)C(=O)O [2-oxopropanoic acid]
Conditions	vapor or sublimation pressure
308.2 K	0.2899 kPa
313.3 K	0.3753 kPa and 0.3771 kPa
315.9 K	0.434 kPa
316.8 K	0.45 kPa
318.3 K	0.509 kPa
320.9 K	0.599 kPa and 0.597 kPa
325.8 K	0.798 kPa
330.8 K	1.092 kPa
333.2 K	1.274 kPa
336.4 K	1.519 kPa
